Data taken from patent US10246712B2, “Genetic or pharmacological reduction of PERK enhances cortical- and hippocampus-dependent cognitive function” (Carmel-Haifa University Economic Corp. Ltd, priority 2015, dated 2019).

Columns and labels:
[1] = biological target: T1, PERK (Rattus norvegicus, UniProt Q9Z1Z1); assay type: in vivo
T1 construct: the PERK shRNA lentivirus was stereotacticaly injected to the IC of adult rats; from tissue; host or cells: insular cortex of adult male Wistar Hola rats, in vivo
T1 sequence (Q9Z1Z1 28-1108): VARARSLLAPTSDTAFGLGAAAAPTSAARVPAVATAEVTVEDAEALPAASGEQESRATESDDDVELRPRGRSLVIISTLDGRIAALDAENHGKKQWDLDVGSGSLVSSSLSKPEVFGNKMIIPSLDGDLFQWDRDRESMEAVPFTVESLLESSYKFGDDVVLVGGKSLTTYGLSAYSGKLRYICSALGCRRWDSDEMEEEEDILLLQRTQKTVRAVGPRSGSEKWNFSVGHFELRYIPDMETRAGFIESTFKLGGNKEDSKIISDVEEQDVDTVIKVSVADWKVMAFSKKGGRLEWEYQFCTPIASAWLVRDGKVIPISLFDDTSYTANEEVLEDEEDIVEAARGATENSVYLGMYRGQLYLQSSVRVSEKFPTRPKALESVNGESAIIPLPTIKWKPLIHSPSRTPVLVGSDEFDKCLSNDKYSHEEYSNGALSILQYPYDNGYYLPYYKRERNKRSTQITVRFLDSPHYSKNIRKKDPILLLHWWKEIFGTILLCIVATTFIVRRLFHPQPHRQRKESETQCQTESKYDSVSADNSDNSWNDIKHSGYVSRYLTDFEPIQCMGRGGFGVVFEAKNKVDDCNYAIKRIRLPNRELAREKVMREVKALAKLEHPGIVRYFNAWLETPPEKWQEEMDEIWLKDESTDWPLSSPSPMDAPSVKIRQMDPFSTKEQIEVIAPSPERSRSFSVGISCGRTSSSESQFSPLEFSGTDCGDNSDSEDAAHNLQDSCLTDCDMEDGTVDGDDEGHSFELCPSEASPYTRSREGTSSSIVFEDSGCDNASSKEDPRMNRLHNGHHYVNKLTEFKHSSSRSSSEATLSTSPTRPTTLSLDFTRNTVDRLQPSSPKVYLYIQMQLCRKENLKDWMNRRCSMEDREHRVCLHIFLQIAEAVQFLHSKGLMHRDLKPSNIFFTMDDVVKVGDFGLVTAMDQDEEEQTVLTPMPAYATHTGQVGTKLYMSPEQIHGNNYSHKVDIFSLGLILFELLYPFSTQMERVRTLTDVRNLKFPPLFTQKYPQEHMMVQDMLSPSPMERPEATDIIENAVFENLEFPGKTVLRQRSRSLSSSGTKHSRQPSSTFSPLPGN
Experimental: Briefly, the rats were anesthetized by administration of equithesin (0.3 ml/100 g), comprising 2.12% (w/v) MgSO4, 10% (v/v) ethanol, 39.1% (v/v) propyleneglycol, 0.98% (w/v) sodium pentobarbital, and 4.2% (w/v) chloral hydrate. They were restrained in a stereotactic frame (Steolting Europe, Dublin-Ireland) and stainless steel guide cannulae (23-gauge) were bilaterally implanted into the insular cortex, angled at (with reference to bregma), anteroposterior=+1.2 mm, lateral±5.5 mm, and ventral 5.0 mm (1 mm ahead of injecting cannula). Two skull screws were inserted into the skull, and acrylic dental cement was applied to secure the cannulae in position. A 28 gauge stylus was inserted into each guide cannula to prevent clogging. The rats were allowed a week in individual cages to recover from the surgery, before the experimental manipulation. PERK inhibitor GSK2606414 (Axten et al., 2012) was dissolved in DMSO and further diluted in saline to a final DMSO concentration of 0.5%. A total of 1 μl of 100 nM GSK2606414 or vehicle was infused bilaterally. For microinfusion, the stylus was removed from the guide cannula and a 28 gauge injection cannula was carefully inserted, to extend 1.0 mm beyond the tip of the guide cannula. The injection cannula was connected via PE20 tubing to a Hamilton syringe (Hamilton) driven by a CMA/100 microinjection pump (Carnegie Medicine), to provide an injection rate of 1 μl/min. After 1 min of infusion, the injection cannula was kept in the guide cannula for an additional minute to minimize dragging of infused solutes along the injection tract. Locations of cannula were verified in 30 μm coronal sections.
Aversion to the novel taste, 0.3% NaCl was measured as described below.

[2] = tested on: pyramidal CA1 neurons; assay: Whole cell patch clamp recording of intrinsic neuronal properties; assay type: cell-based, mouse; conditions: vs vehicle
Experimental: Mice were sacrificed by cervical dislocation and three hundred micrometer coronal brain slices were cut with a Campden-1000 Vibrotome. Slices were cut in ice-cold cutting solution containing (in mM) 110 sucrose, 60 NaCl, 3 KCl, 1.25 NaH2PO4, 28 NaHCO3, 0.5 CaCl2, 7 MgCl2, 5 glucose, and 0.6 ascorbate and recovered for 30 min at 37° C. in artificial cerebrospinal fluid (ACSF) containing (in mM) 125 NaCl, 2.5 KCl, 1.25 NaH2PO4, 25 NaHCO3, 25 D-glucose, 2 CaCl2, and 1 MgCl2, followed by additional recovery for 30 min in room-temperature ACSF. After initial recovery, slices were placed in a submerged chamber and maintained at 34° C. in ACSF (2 ml/min). All solutions were constantly carboxygenated with 95% O2+5% CO2.
Cells infected with PERK-shRNA- or scrambled sequence PERK shRNA (PERK-Scr)-containing AAV were identified by green fluorescence. Recordings were amplified by multiclamp 700B and digitized by Digidata 1440 (Molecular Devices). The recording electrode was pulled from a borosilicate glass pipette (3-5 MΩ) using an electrode puller (P-1000; Sutter Instruments) and filled with a K-gluconate-based internal solution containing (in mM) 120 K-gluconate, 20 KCl, 10 HEPES, 2 MgCl2, 4 Na2ATP, 0.5 TrisGTP, 14 phosphocreatine, osmolarity 290 mOsm, and pH 7.3. The recording glass pipettes were patched onto the soma region of pyramidal cells. Voltages for liquid junction potential (+10 mV) were not corrected online. All current-clamp recordings were low-pass filtered at 10 kHz and sampled at 50 kHz. Series resistance was compensated and only series resistance <20 MΩ was included in the data set. Pipette capacitance was ˜99% compensated. The method for measuring active intrinsic properties was based on a modified version of Kaphzan H et al., 2013. For recordings with GSK2606414, 100 nM inhibitor was applied in the pipette solution, and recordings were performed as described above.
Resting membrane potential (RMP) was measured 5 min after the seal was ruptured. The I-V (current-voltage) relationship used to calculate number of action potentials obtained by injection of 1 s pulses (−150 to +300 pA in 50 pA increments).
Input resistance (Rin) was calculated from the voltage response to a hyperpolarizing current pulse (−150 pA). For measurements of a single AP, after initial assessment of the current, which was required to induce an action potential at 15 ms from the start of the current injection with large steps (50 pA), we injected a series of brief depolarizing currents for 10 ms in steps of 10 pA increments. The first action potential that appeared on the 5 ms time point was analyzed. A curve of dV/dt was created for that trace, and the 30 V/s point in the rising slope of the action potential was considered as threshold (Kaphzan et al., 2013).
AP amplitude was measured from the equipotential point of the threshold to the spike peak, while AP duration was measured at the point of half-amplitude of the spike. The mAHP (medium after-hyperpolarization) was measured using prolonged (3 s), high-amplitude (3 nA) somatic current injections to initiate time-locked action potential trains of 50 Hz frequency and duration (10-50 Hz, 1 or 3 s) in pyramidal cells. These action potential trains generated prolonged (˜20 s) AHPs, the amplitudes and integrals of which increased with the number of action potentials in the spike train. AHP was measured from the equipotential point of the threshold to the anti-peak of the same spike (Gulledge et al., 2013).
Series resistance, input resistance, and membrane capacitance were monitored during the entire experiment. Changes in these parameters (which were monitored throughout the entire duration of the experiment) greater than 10% were criteria for exclusion of data. AU experimental analyses were performed in a blind manner; the identity of the mouse from which neurons were recorded (PERK shRNA or scrambled) was not known to the person conducting the experiments and measurements.

## Cn1cc(-c2ccc3c(c2)CCN3C(=O)Cc2cccc(C(F)(F)F)c2)c2c(N)ncnc21 [GSK2606414, 7-methyl-5-(1-{[3-(trifluoromethyl)phenyl]acetyl}-2,3-dihydro-1H-indol-5-yl)-7H-pyrrolo[2,3-d]pyrimidin-4-amine]
[1]; 0.3% NaCl + 0.075 M LiCl i.p., 1 μl 100 nM into IC 20 min prior to novel taste, n=8
  aversion index (CTA memory): 72%±3.5
[1]; single injection of 100 nM into IC during CTA
  extinction of CTA: not affected
[1]; vs vehicle group throughout the behavioral procedure, data not shown
  total drinking volumes: similar
[2]; 100 nM in pipette solution, acute hippocampal slices, increased current steps
  action potential (AP) frequency: increased
[2]; 100 nM in pipette solution
  AP amplitude: longer
  AP mid width: wider
  AP threshold: hyperpolarized
  input resistance: Neither resting membrane potential (RMP) nor input resistance was changed
  resting membrane potential (RMP): Neither resting membrane potential (RMP) nor input resistance was changed
[2]; 100 nM, acute hippocampal slices
  mAHP: significantly reduced
